Data from patent publication US11415579B2, “Assay for measuring a rate of reaction between a target and a ligand candidate” (Imperial College Innovations Ltd., priority 2016, dated 2022).

Experiments:
[1] = Kinetic thiol consumption assay with model thiol glutathione; type: physicochemical; set-up: Rate constant with glutathione (k(GSH)): unit not given here; details: for Rate constant with glutathione (k(GSH)): 500 μM ligand, 5 μM thiol, phosphate buffer pH 8; for Rate constant with Glutathione: Protein: Glutathione, cysteine position NA, in h-1
In short: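 Rate constants for acrylamide reaction with 5 μM glutathione come from first-order exponential fits of normalized fluorescence decay (ex 380, em 470 nm). Reactions run in degassed phosphate buffer at pH 8 containing TCEP beads, room temperature.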

[2] = target: T1, human cyclin-dependent kinase 2 (Cdk2) (Homo sapiens, UniProt P24941); assay: Kinetic thiol consumption assay with wild type Cdk2 (C177); type: binding; set-up: key to Rate enhancement, Cdk2 WT: k(Cdk2) divided by k(model thiol); Rate constant with Cdk2 (k(Cdk2)): unit not given here; details: for Rate constant with Cdk2 (k(Cdk2)): 500 μM ligand, 5 μM thiol, phosphate buffer pH 8; for Rate enhancement, Cdk2 WT: no additional mutations; for Rate constant with Cdk2 WT: Protein: Cdk2, cysteine position WT, in h^-1; for k(Cdk2)/k(Cdk2_mut) rate enhancement: model thiol Cdk2[C177A, F80C, K278C]; for k(Cdk2)/k(GSH) rate enhancement: model thiol glutathione
T1 construct: poly-histidine; made in house; host or cells: E. coli
In short: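 His-tagged human Cdk2 from E. coli (sole surface cysteine C177) or a model thiol, each 5 μM in degassed phosphate buffer pH 8 with immobilized TCEP, reacted with acrylamides at room temperature. Fluorescence (ex 380/em 470) normalized to DMSO/thiol control over time; first-order rate constants, Cdk2 rate divided by model-thiol rate.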

Cdk2[C177A, F80C, K278C] = target: T2, Cdk2[C177A, F80C, K278C] (Homo sapiens, UniProt P24941, C177A/F80C/K278C); assay: Kinetic thiol consumption assay with mutant Cdk2 as model thiol; type: binding; set-up: unit not given here; details: 500 μM ligand, 5 μM thiol, phosphate buffer pH 8
T2 construct: poly-histidine; made in house; host or cells: E. coli
In short: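 Model thiol: His-tagged human Cdk2 C177A/F80C/K278C (two engineered surface cysteines), E. coli-expressed, 5 μM in degassed phosphate buffer pH 8 with immobilized TCEP beads (2% v/v). Fluorescence (ex/em 380/470 nm) followed over time at room temperature, normalized to DMSO/thiol control. First-order decay fit gives rate constants.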

Cdk2(C177A, F80C) = target: T3, Cdk2(C177A, F80C) (Homo sapiens, UniProt P24941, C177A/F80C); assay: Kinetic thiol consumption assay with Cdk2 mutant F80C, incl. kobs versus concentration (Kd, k2); type: binding; set-up: key to Rate enhancement, Cdk2 F80C: Cdk2 rate constant divided by model-thiol rate constant; details: additional mutation C177A; for Rate constant with Cdk2 F80C: Protein: Cdk2, cysteine position F80C, in h^-1
T3 construct: poly-histidine; made in house; host or cells: E. coli
In short: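 His-tagged Cdk2(C177A/F80C) from E. coli or model thiol, 5 μM in degassed phosphate buffer pH 8 with TCEP beads, reacted with acrylamide ligands; fluorescence (ex/em 380/470 nm) normalized to DMSO control and fitted to first-order decay for kobs. Kd and k2 obtained from hyperbolic fit of kobs versus ligand concentration.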

Cdk2(H71C) (C177A) = target: T4, Cdk2(H71C) (C177A) (Homo sapiens, UniProt P24941, C177A/H71C); assay: Kinetic thiol consumption assay with Cdk2 mutant H71C; type: binding; set-up: key to Rate enhancement, Cdk2 H71C: rate constant with Cdk2 ÷ rate constant with model thiol (fold); details: additional mutation C177A; for Rate constant with Cdk2 H71C: Protein: Cdk2, cysteine position H71C, in h^-1
T4 construct: poly-histidine; made in house; host or cells: E. coli
In short: (§1)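 5 μM thiol, degassed phosphate pH 8, 2% v/v immobilized TCEP beads; 1 h RT; fluorescence ex 380/em 470 nm; normalized vs DMSO/thiol-only; first-order exponential decay fit → rate constant; Cdk2 k / model-thiol k = rate enhancement per acrylamide.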

Cdk2(S276C) (C177A) = target: T5, Cdk2(S276C) (C177A) (Homo sapiens, UniProt P24941, C177A/S276C); assay: Kinetic thiol consumption assay with Cdk2 mutant S276C; type: binding; set-up: key to Rate enhancement, Cdk2 S276C: rate constant with Cdk2 ÷ rate constant with model thiol (fold); details: additional mutation C177A; for Rate constant with Cdk2 S276C: Protein: Cdk2, cysteine position S276C, in h^-1
T5 construct: poly-histidine; made in house; host or cells: E. coli
In short: as §1

Cdk2(N272C) (C177A) = target: T6, Cdk2(N272C) (C177A) (Homo sapiens, UniProt P24941, C177A/N272C); assay: Kinetic thiol consumption assay with Cdk2 mutant N272C; type: binding; set-up: key to Rate enhancement, Cdk2 N272: rate constant with Cdk2 ÷ rate constant with model thiol (fold); details: for Rate enhancement, Cdk2 N272: Cdk2 N272, additional mutation C177A; for Rate constant with Cdk2 N272C: Protein: Cdk2, cysteine position N272C, additional mutation C177A, in h^-1
T6 construct: poly-histidine; made in house; host or cells: E. coli
In short: as §1

Cdk2(T182C) (C177A) = target: T7, Cdk2(T182C) (C177A) (Homo sapiens, UniProt P24941, C177A/T182C); assay: Kinetic thiol consumption assay with Cdk2 mutant T182C; type: binding; set-up: key to Rate enhancement, Cdk2 T182C: rate constant with Cdk2 ÷ rate constant with model thiol (fold); details: additional mutation C177A; for Rate constant with Cdk2 T182C: Protein: Cdk2, cysteine position T182C, in h^-1
T7 construct: poly-histidine; made in house; host or cells: E. coli
In short: as §1

Cdk2(R122C) (C177A) = target: T8, Cdk2(R122C) (C177A) (Homo sapiens, UniProt P24941, C177A/R122C); assay: Kinetic thiol consumption assay with Cdk2 mutant R122C; type: binding; set-up: key to Rate enhancement, Cdk2 R122C: rate constant with Cdk2 ÷ rate constant with model thiol (fold); details: additional mutation C177A; for Rate constant with Cdk2 R122C: Protein: Cdk2, cysteine position R122C, in h-1
T8 construct: poly-histidine; made in house; host or cells: E. coli
In short: as §1

Cdk2(S181C) (C177A) = target: T9, Cdk2(S181C) (C177A) (Homo sapiens, UniProt P24941, C177A/S181C); assay: Kinetic thiol consumption assay with Cdk2 mutant S181C; type: binding; set-up: key to Rate enhancement, Cdk2 S181C: rate constant with Cdk2 ÷ rate constant with model thiol (fold); details: additional mutation C177A; for Rate constant with Cdk2 S181C: Protein: Cdk2, cysteine position S181C, in h^-1
T9 construct: poly-histidine; made in house; host or cells: E. coli
In short: as §1

Row | Rate constant with Cdk2 (k(Cdk2)) [2] | Rate enhancement, Cdk2 WT [2] | Rate constant with Cdk2 WT [2] | k(Cdk2)/k(Cdk2_mut) rate enhancement [2] | k(Cdk2)/k(GSH) rate enhancement [2] | Rate constant with Cdk2[C177A, F80C, K278C] (k(Cdk2_mut)) (Cdk2[C177A, F80C, K278C]) | Rate enhancement, Cdk2 F80C (Cdk2(C177A, F80C)) | Rate constant with Cdk2 F80C (Cdk2(C177A, F80C)) | Rate enhancement, Cdk2 H71C (Cdk2(H71C) (C177A)) | Rate enhancement, Cdk2 S276C (Cdk2(S276C) (C177A)) | Rate constant with Cdk2 S276C (Cdk2(S276C) (C177A)) | Rate enhancement, Cdk2 N272 (Cdk2(N272C) (C177A)) | Rate constant with Cdk2 N272C (Cdk2(N272C) (C177A)) | Rate enhancement, Cdk2 T182C (Cdk2(T182C) (C177A)) | Rate constant with Cdk2 T182C (Cdk2(T182C) (C177A)) | Rate enhancement, Cdk2 R122C (Cdk2(R122C) (C177A)) | Rate constant with Cdk2 R122C (Cdk2(R122C) (C177A)) | Rate enhancement, Cdk2 S181C (Cdk2(S181C) (C177A)) | Structure (SMILES) | Rate constant with glutathione (k(GSH)) [1] | Rate constant with Glutathione [1] | other results
1 | 0.04586 | 3.338 | 0.04586 | 0.5803 | 3.318 | 0.07903 | 4.306 | 0.05916 | 3.672 | 3.934 | 0.05406 | 2.758 | 0.0379 | 13.92 | 0.1913 | 3.287 | 0.04516 | 8.879 | C=CC(=O)N1CC(OCc2cccc3ccccc23)C1 [CA-203] | 0.01382 | 0.01374 | Rate constant with Cdk2 H71C (Cdk2(H71C) (C177A)): 0.05046; Rate constant with Cdk2 S181C (Cdk2(S181C) (C177A)): 0.122
2 | 0.00578 | 0.3633 | 0.006162 | 5.219 | 0.5947 | 0.00111 | 0.1388 | 0.002354 | 0 | 0.1692 | 0.00287 | 0.3358 | 0.005695 | 0.921 | 0.01562 | 0.3602 | 0.006109 | 0.2075 | C=CC(=O)N1CC2CN(Cc3ccccc3)CC2C1 (centres unmarked) [CA-207] | 0.00972 | 0.01696 | Rate constant with Cdk2 S181C (Cdk2(S181C) (C177A)): 0.003519
3 | 0.00368 | 0.3928 | 0.003681 | 2.144 | 0.6839 | 0.00172 | 0.2496 | 0.002339 | 0 | 0.4691 | 0.004395 | 2.443 | 0.02289 | 2.18 | 0.02043 | 0.3837 | 0.003595 | 2.498 | C=CC(=O)N1CC2CC2C1 (centres unmarked) [CA-211] | 0.00538 | 0.00937 | Rate constant with Cdk2 S181C (Cdk2(S181C) (C177A)): 0.02341
4 | 0.03272 | 2.55 | 0.03272 | 0.2745 | 2.536 | 0.1192 | 11.9 | 0.1527 | 0.809 | 2.167 | 0.0278 | 0.3525 | 0.004522 | 9.969 | 0.1279 | 0.6834 | 0.008768 | 1.116 | C=CC(=O)Nc1cccc(C(=O)c2ccccc2)c1 [CA-218] | 0.0129 | 0.01283 | Rate constant with Cdk2 H71C (Cdk2(H71C) (C177A)): 0.01038; Rate constant with Cdk2 S181C (Cdk2(S181C) (C177A)): 0.01432
